Activity calls are given as the source filed them. No rule for the calls is given here. Where only a bound is given, the exact number is not on record here.

For the first experiment, the target named is Toxin B (TcdB) glycohydrolase, Clostridioides difficile 630. Description: TcdB glycohydrolase inhibitors, dose response, biochemical, cherry-pick, plate reader (AID 720512). As to conditions: recombinant TcdB glycohydrolase activity.
As usually defined, the AC50 is the concentration at which the activity in the assay is half-maximal. For `Cc1ccc(S(=O)(=O)N2CC(CBr)=CCC2c2ccccc2)cc1` (stereo unspecified), the AC50 was > 39 µM (inactive).
As to `CN1c2ccc(-c3ccccc3)cc2[C@H]2[C@H](CCN2C(=O)CN2CCOCC2)[C@H]1CO`, the AC50 is > 39 µM (inactive).
As to `CCOc1ccc(/C=N/n2nnnc2N)cc1O`, the AC50 is > 39 µM (inactive).
`CN(C)CCNc1cccc2sc3ccc(O)cc3c(=O)c12`: the AC50 is 12.4 µM.
As to `Nc1ccc2nc(-c3cccs3)[nH]c2c1`, the AC50 was > 39 µM (inactive).
On the same count and under the same terms, with `CCCNC(=O)N1CC[C@@H]2[C@@H](CO)N(C)c3ccc(-c4ccccc4)cc3[C@@H]21` the figure was > 39 µM (inactive); with `Cc1ccc(C)c2c1cc(C)c1nnc(SCC(=O)NCc3ccc4c(c3)OCO4)n12`, > 39 µM (inactive); with `Oc1ccc(/C=N/N2CCN(c3ccccn3)CC2)cc1`, > 39 µM (inactive).

Staying with this experiment, now noted: recombinant TcdB glycohydrolase activity, at 19.5 µM (top of the series).
Consider `COc1cc(/C=N/NC(=O)Cn2nnc3ccccc32)ccc1O`, for which the “activity change, negative = inhibition” value is “inactive”.
With `CC(C)Sc1nnc(NC(=O)c2ccco2)s1`, the “activity change, negative = inhibition” value is “inactive”.
Take `S=c1nc(-c2cccc(Cl)c2)[nH][nH]1`: the “activity change, negative = inhibition” value was “inactive”.
For the molecule `CCN(CC)C(=O)C1CCN(S(=O)(=O)c2c(C)noc2/C=C/c2cccc(C)c2)CC1`, the “activity change, negative = inhibition” value was “inactive”.
As to `CCOC(=O)c1c(C)[nH]c(C)c1C(=O)COC(=O)/C=C/c1ccco1`, the “activity change, negative = inhibition” value is “inactive”.
With `CC(=O)Nc1ccc(N(C(=O)c2ccco2)C(C(=O)NC2CCCC2)c2cccs2)cc1` (stereo unspecified), the “activity change, negative = inhibition” value is “inactive”.
Consider `COc1ccc(C2=NS(=O)(=O)N(C)C(C(=O)NCc3ccccc3)=C2)cc1OC`, for which the “activity change, negative = inhibition” value was “inactive”.
On to `O=C(CCNC(=O)c1ccccc1Cl)N/N=C\c1ccc(O)cc1`, for which the “activity change, negative = inhibition” value was “inactive”.
With `Cn1c(=O)c2c([nH]c(=S)n2Cc2ccc(Cl)cc2)n(C)c1=O`, the “activity change, negative = inhibition” value was “inactive”.
On the same count and under the same terms, the value for `COc1ccc(CNCCc2ccc3c(c2)OCO3)cc1Br` was “inactive”; that for `CCc1ccc(Nc2n[n+](-c3ccccc3)c(-c3ccc(OC)c(Br)c3)s2)cc1` was “inactive”.
Still for that read-out and setting: with `CCOc1cc(NC(=S)NCC2CCCO2)c(OCC)cc1NC(=O)c1ccc(F)cc1` (stereo unspecified) the entry was “inactive”; with `COc1ccccc1C1=NNC(=NCc2ccccc2)SC1`, “inactive”.
Consider `CNC(=O)C1CCN(S(=O)(=O)c2c(C)noc2/C=C/c2ccc(C)cc2)CC1`, for which the “activity change, negative = inhibition” value is “inactive”.
Regarding `COc1ccccc1-n1c(CCC(=O)O)ccc1-c1ccccc1`, the “activity change, negative = inhibition” value was “inactive”.
Still for that read-out and setting: with `CN(c1ccc(O)cc1)c1nc(-c2cccnc2)cs1` the entry was “inactive”; with `Cc1cccc(-c2n[nH]c(=S)n2/N=C/C=C/c2ccco2)c1`, “inactive”; with `COc1ccc(/C=C\c2onc(C)c2S(=O)(=O)N2CCC(C(=O)NCc3ccco3)CC2)cc1`, “inactive”.
`O=C(NN=Cc1cc(Br)c(O)c(Br)c1)c1ccccc1NS(=O)(=O)c1cccs1`: the “activity change, negative = inhibition” value was “inactive”.
Take `O=C(c1ccccc1F)N1CCN(c2ccc([N+](=O)[O-])c3cccnc23)CC1`: the “activity change, negative = inhibition” value was “inactive”.
For the molecule `Nc1ccc(C(=O)c2ccc3c(c2)OCCO3)cc1N`, the “activity change, negative = inhibition” value was “inactive”.
Consider `CCCC(=O)Nc1ccc2c(c1)OC[C@H](C)N(CC1CCCC1)C[C@H](C)[C@@H](OC)CN(C)C2=O`, for which the “activity change, negative = inhibition” value is “inactive”.
On to `Cn1c(=O)[nH]c(=O)c2c1[nH]c(=S)n2Cc1ccccc1`, for which the “activity change, negative = inhibition” value was “inactive”.
Turning to `Cc1cc(C(=O)CSc2nc(N)cc(=O)[nH]2)c(C)n1CC1CCCO1` (stereo unspecified), the “activity change, negative = inhibition” value is “inactive”.
As for `O=C(NNc1nc2c(F)cccc2s1)C1COc2ccccc2O1` (stereo unspecified), the “activity change, negative = inhibition” value was “inactive”.
`Cc1ccc2sc(NNC(=O)C3COc4ccccc4O3)nc2c1C` (stereo unspecified): the “activity change, negative = inhibition” value was “inactive”.
As for `CCOC(=O)[C@@H]1[C@H]2COc3ccc(Br)cc3[C@@H]2N2C(=O)N(c3cccc(F)c3)C(=O)[C@]12C`, the “activity change, negative = inhibition” value was “inactive”.
The same measure, in the same setting: with `COC(=O)C(C(=O)OC)C(CC(=O)c1ccc(Br)cc1)c1ccccc1` (stereo unspecified) the entry was “inactive”; with `Cc1ccc(S(=O)(=O)Oc2cccc(/C=N/n3cnnc3)c2)cc1`, “inactive”; with `C[C@H]1CN([C@@H](C)CO)S(=O)(=O)c2ccc(-c3ccncc3)cc2O[C@H]1CN(C)Cc1ccc(Oc2ccccc2)cc1`, “inactive”.
As to `Cc1cscc1-c1nc(NCC2CC2)nc2ccsc12`, the “activity change, negative = inhibition” value was “inactive”.
As for `O=C(COc1ccc(/C=N/NC(=O)c2ccc(O)cc2)cc1)Nc1cccc([N+](=O)[O-])c1`, the “activity change, negative = inhibition” value is “inactive”.
On the same count and under the same terms, the value for `COc1ccc(/C=C2\CCCCC2=O)cc1` was “inactive”; that for `Cc1cccc(/C=C/c2onc(C)c2S(=O)(=O)N2CCC(C(=O)N3CCCCCC3)CC2)c1` was “inactive”.
On the same count and under the same terms, with `CCN1CCN(S(=O)(=O)c2ccc3[nH]c(=O)oc3c2)CC1` the entry was “inactive”; with `COc1cc(/C=C(/NC(=O)c2ccccc2)C(=O)Nc2ccc(O)cc2)c([N+](=O)[O-])cc1OC`, “inactive”.
Consider `CNC(=O)C1Cc2c(-c3ccccc3Oc3ccccc3)ccnc2O1` (stereo unspecified), for which the “activity change, negative = inhibition” value is “inactive”.
Consider `CNC(=O)C[C@@H]1CC[C@H]2[C@H](COc3ccc(NS(=O)(=O)c4ccccc4C)cc3C(=O)N2C)O1`, for which the “activity change, negative = inhibition” value was “inactive”.
Take `CN(c1ccccc1)S(=O)(=O)c1cccc(C(=O)NCCc2ccc(O)c(O)c2)c1`: the “activity change, negative = inhibition” value was “inactive”.
Turning to `CC(=O)Oc1ccc2nc(/C=C/c3ccccc3)oc(=O)c2c1`, the “activity change, negative = inhibition” value was “inactive”.
Still for that read-out and setting: with `Cn1cc(C(CO)Cc2ccccc2)c2ccccc21` (stereo unspecified) the entry was “inactive”.
Take `COc1ccc(-c2cn3cc(C)ccc3n2)cc1F`: the “activity change, negative = inhibition” value is “inactive”.
In the case of `CCN1CCN(C(=O)C2=CC(c3ccc(OC)cc3)=NS(=O)(=O)N2C)CC1`, the “activity change, negative = inhibition” value was “inactive”.
`O=c1[nH]nc(-c2cc(-c3ccccc3)nc3ccccc23)o1`: the “activity change, negative = inhibition” value is “inactive”.
For the molecule `CC(C)(Oc1ccc(Cl)cc1)C(=O)NC1CC1`, the “activity change, negative = inhibition” value is “inactive”.
The same measure, in the same setting: the value for `COc1ccc(NC(=O)Cn2cnc3sc(C)c(S(=O)(=O)N4CCOCC4)c3c2=O)c(OC)c1` was “inactive”; that for `O=C(Nc1ccc(O)cc1)/C(=C/c1ccco1)NC(=O)c1ccccc1` was “inactive”.
Same read-out and setting: the value for `Cc1noc(/C=C/c2ccccc2F)c1S(=O)(=O)N1CCC(C(=O)N2CCN(C)CC2)CC1` was “inactive”; that for `COc1cc(/C=C/C(=O)OCC(=O)NCc2ccco2)ccc1O` was “inactive”; that for `C=CC[C@@H](CC(=O)N(CCO)Cc1ccccc1)C(=O)NC[C@@H](OC(=O)[C@@H](CC=C)CC(=O)OC(C)(C)C)c1ccccc1` was “inactive”.
Take `Cc1ccc(NNC(=O)c2ccno2)cc1Cl`: the “activity change, negative = inhibition” value is “inactive”.
For the molecule `COc1cc(O)ccc1C(=O)CCc1ccc(O)cc1`, the “activity change, negative = inhibition” value was “inactive”.
As for `CCCCn1c(=S)[nH]c2c(=O)n(C)c(=O)n(C)c21`, the “activity change, negative = inhibition” value is “inactive”.
Take `COc1ccc(-c2nc3ccc([N+](=O)[O-])cc3[nH]2)cc1`: the “activity change, negative = inhibition” value was “inactive”.
On to `CCCCNC(=O)C1CCN(S(=O)(=O)c2c(C)noc2/C=C\c2ccc(OC)cc2)CC1`, for which the “activity change, negative = inhibition” value is “inactive”.
Regarding `NC(=O)NN=C1CC2CC1C1C=CCC21` (stereo unspecified), the “activity change, negative = inhibition” value is “inactive”.
With `O=C(NC(=S)NNS(=O)(=O)c1ccccc1)c1cccnc1`, the “activity change, negative = inhibition” value is “inactive”.
With `CC(Sc1nccn1C)C(=O)c1c(N)n(C)c(=O)n(C)c1=O` (stereo unspecified), the “activity change, negative = inhibition” value is “inactive”.
`CC1(C)OC2C(O1)[C@@H](CO)O[C@H]2n1cnc2c(N)ncnc21` (stereo partly specified): the “activity change, negative = inhibition” value is “inactive”.
As to `C/C(=N\OCC(=O)Nc1nc2ccccc2s1)c1ccccc1`, the “activity change, negative = inhibition” value is “inactive”.
Regarding `CC1CN=C(Nc2cccc(S(=O)(=O)N(C)C)c2)S1` (stereo unspecified), the “activity change, negative = inhibition” value is “inactive”.
Take `C=C1CCN(Cc2ccccc2)S(=O)(=O)c2ccccc21`: the “activity change, negative = inhibition” value is “inactive”.
As to `CC1(C)CC(=O)C(C=Nc2ccc(O)cc2)=C(O)C1`, the “activity change, negative = inhibition” value is “inactive”.
Take `Oc1ccc(CCNc2ncnc3ccc(Cl)cc23)cc1`: the “activity change, negative = inhibition” value is “inactive”.
As to `Cc1ccc(SCCC(=O)N/N=C/c2cccnc2)cc1`, the “activity change, negative = inhibition” value was “inactive”.
Same read-out and setting: the value for `O=c1[nH]c(CN2CCOCC2)nc2cc(Cl)ccc12` was “inactive”.
As to `COC(=O)C1=C(c2ccc(OCc3ccccc3)cc2)C[C@@H]2CC[C@H]1N2C(=O)NCCCc1ccccc1`, the “activity change, negative = inhibition” value is “inactive”.
On the same count and under the same terms, the value for `Cc1ccc(NS(=O)(=O)c2ccc(C)c(NC(=S)NCCN3CCOCC3)c2)c(C)c1` was “inactive”; that for `COc1ccc(NC(c2ccccc2)c2ccncc2)cc1` (stereo unspecified) was “inactive”; that for `CCCc1cc(-c2n[nH]c(C(=O)OCC)c2-c2cscn2)c(O)cc1O` was “inactive”.
Same read-out and setting: the value for `O=C(N[C@@H](Cc1c[nH]c2ccccc12)C(=O)O)C1CCN(S(=O)(=O)c2cccs2)CC1` was “inactive”.
Same read-out and setting: with `COc1ccccc1/C=N/NC(=O)CC(=O)NCc1ccccc1` the entry was “inactive”; with `Cc1nc2ccccc2nc1OCC(=O)Nc1ccc(F)cc1`, “inactive”.
